Measured values: PubChem BioAssay (NCI)
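Interpolation was linear, between the two tested concentrations surrounding the appropriate level; five concentrations were tested over 48 hours in 96-well plates. Abbreviation: GI50, concentration required for 50% inhibition of growth. TGI: concentration producing complete growth inhibition.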

Legend:
Experiment in all cases: DTP human tumour cell line panel, 48 h
U251 CNS = tested on: U251 CNS
HL-60(TB) leukemia = tested on: HL-60(TB) leukemia
UACC-62 melanoma = tested on: UACC-62 melanoma
HT29 colon = tested on: HT29 colon
SF-539 CNS = tested on: SF-539 CNS
NCI-H522 lung = tested on: NCI-H522 lung
A498 renal = tested on: A498 renal
SF-295 CNS = tested on: SF-295 CNS
M14 melanoma = tested on: M14 melanoma
NCI/ADR-RES ovarian = tested on: NCI/ADR-RES ovarian

Row | Compound | GI50 (U251 CNS) [µM] | TGI (U251 CNS) [µM] | GI50 (HL-60(TB) leukemia) [µM] | TGI (HL-60(TB) leukemia) [µM] | GI50 (UACC-62 melanoma) [µM] | TGI (UACC-62 melanoma) [µM] | GI50 (HT29 colon) [µM] | TGI (HT29 colon) [µM] | GI50 (SF-539 CNS) [µM] | TGI (SF-539 CNS) [µM] | GI50 (NCI-H522 lung) [µM] | TGI (NCI-H522 lung) [µM] | GI50 (A498 renal) [µM] | TGI (A498 renal) [µM] | GI50 (SF-295 CNS) [µM] | TGI (SF-295 CNS) [µM] | TGI (M14 melanoma) [µM] | GI50 (M14 melanoma) [µM] | GI50 (NCI/ADR-RES ovarian) [µM] | TGI (NCI/ADR-RES ovarian) [µM]
1 | COc1nc(N(C)O)nc(N(C)O)n1 | 0.716 | > 100 | 1.68 | 9.1 | 2.28 | 9.92 | 1.03 | > 100 | 1.26 | 9.69 | 2.53 | > 100 | 7.19 | 80.5 | 2.2 | 9.69 | – | – | – | –
2 | COc1cc(CCc2ccc(OCCN(C)C)cc2)cc(OC)c1OC | – | > 100 | – | > 100 | – | > 100 | – | > 100 | – | > 100 | – | > 100 | – | > 100 | – | > 100 | > 100 | – | – | –
3 | CCc1cccc(C(C)C)c1NC(=O)C(=O)C(Cc1nc2ccccc2[nH]c1=O)C(=O)OC (stereo not given) | – | > 100 | – | > 100 | – | > 100 | – | > 100 | – | > 100 | – | > 100 | – | > 100 | – | > 100 | > 100 | – | – | –
4 | COC(=O)C1CC2(CC3=C1CCCC3)OCCO2 (stereo not given) | – | > 100 | – | > 100 | – | > 100 | – | > 100 | – | > 100 | – | > 100 | – | > 100 | – | > 100 | > 100 | – | – | –
5 | CN(C)c1cccc2c(S(=O)(=O)N[C@H]3CC[C@H]4[C@@H]5CCc6cc(O)ccc6[C@H]5CC[C@]34C)cccc12 | 2.94 | 10.4 | 2.78 | 8.23 | 1.55 | 3.46 | 2.5 | 5.45 | 1.88 | 4.14 | – | – | 1.75 | 4 | 1.02 | 2.7 | 18.3 | 3.7 | 2.74 | 9.9
6 | Cc1ccc(-[n+]2c3cc(N)c(C)cc3nc3cc(C)c(Nc4ccccc4)cc32)cc1 | – | – | 0.102 | 0.482 | 0.236 | 0.979 | 0.0377 | 0.345 | – | – | 0.249 | 0.788 | 0.119 | 0.438 | 0.0646 | 0.181 | 0.428 | 0.134 | – | –
7 | Cc1cc2c(c(C#N)c1C)NC(=O)CCC2=O | – | > 100 | – | > 100 | – | > 100 | – | > 100 | – | > 100 | – | – | – | > 100 | – | > 100 | > 100 | – | – | –
8 | CCOc1ccccc1NC(=O)C(=O)CC(=O)c1c(C)n([O-])c2ccccc2[n+]1=O | – | > 100 | – | > 100 | – | > 100 | – | > 100 | – | > 100 | – | > 100 | – | > 100 | – | > 100 | > 100 | – | – | –
9 | CC1=C(C(=O)Nc2c(C)cccc2C)C(c2ccc3c(c2)OCO3)C(C(=O)Nc2c(C)cccc2C)=C(C)N1 | – | 29.1 | – | 56.1 | – | 10.9 | – | 30.2 | – | 37.7 | – | 31.7 | – | – | – | 32.7 | 33.9 | – | – | –
10 | O=c1c2ccccc2[nH]c(=S)n1-c1ccc(Br)cc1 | – | > 100 | – | > 100 | – | – | – | > 100 | – | > 100 | – | > 100 | – | > 100 | – | > 100 | – | – | – | –
11 | CC1OC(OCC2OC(Oc3c(-c4ccc(O)cc4)oc4cc(O)cc(O)c4c3=O)C(OC3OCC(O)(CO)C3O)C(O)C2O)C(O)C(O)C1O (stereo not given) | – | > 100 | – | 38.7 | – | > 100 | – | > 100 | – | > 100 | – | > 100 | – | > 100 | – | > 100 | > 100 | – | – | –
12 | Cc1cnc2c(C)ccc([N+](=O)[O-])c2c1NCCCN(C)C | – | > 100 | – | > 100 | – | – | – | > 100 | – | > 100 | – | > 100 | – | – | – | > 100 | > 100 | – | – | –
13 | CCOC(=O)c1c2c(n3ccc(NC(=O)CCN4CCCC4)cc13)C(=O)c1ncccc1C2=O | 1.27 | 2.82 | 1.07 | 3.32 | 1.39 | 3.22 | 1.57 | 3.46 | 1.52 | 3.19 | – | – | – | – | 1.1 | 2.67 | – | – | 1.27 | 4.86
14 | Cn1c(=O)nc2n(-c3ccc(Cl)cc3)c3ccc(Cl)cc3nc-2c1=O | – | – | – | 18.9 | – | 3.09 | – | 59.2 | – | – | – | 21.3 | – | 24.6 | – | 19 | 21.8 | – | – | –
15 | Nc1ccn(CCOC(=O)c2ccccc2)c(=O)n1 | – | > 100 | – | > 100 | – | > 100 | – | > 100 | – | > 100 | – | > 100 | – | > 100 | – | > 100 | > 100 | – | – | –
16 | CC[C@H](C)N(CCN)C(=O)c1cc2ccccc2c(-c2ccccc2Cl)n1 | – | 24.4 | – | 23.1 | – | 29.5 | – | 20.5 | – | 6.5 | – | 34 | – | 17.4 | – | 28.4 | 44.8 | – | – | –
17 | CC1=C(C(=O)Nc2ccccc2C)C(c2ccccc2)C(C(=O)Nc2ccccc2C)=C(C)N1 | – | > 100 | – | 43.3 | – | > 100 | – | > 100 | – | > 100 | – | > 100 | – | > 100 | – | > 100 | > 100 | – | – | –
18 | O=C(CNc1nncs1)NO | – | > 100 | – | > 100 | – | > 100 | – | > 100 | – | > 100 | – | > 100 | – | > 100 | – | > 100 | > 100 | – | – | –
19 | COc1cccc2cc(C)c(C(=O)c3ccccc3)nc12 | – | > 100 | – | – | – | > 100 | – | – | – | > 100 | – | > 100 | – | – | – | > 100 | > 100 | – | – | –
20 | Nn1c(-c2ccccc2)nc2ccc(Br)cc2c1=O | – | > 100 | – | 76.8 | – | > 100 | – | > 100 | – | > 100 | – | > 100 | – | > 100 | – | > 100 | > 100 | – | – | –
